What is called pKi is the negative decadic logarithm of the Ki, by convention in mol/L.

For experiment [1], the target named is T1, human adenosine A2A receptor (Homo sapiens, UniProt P29274).
T1 construct: expressed in transfected cells; host or cells: CHO cells, Semliki Forest virus expression system; membrane preparation
Nature of the experiment: Human adenosine A2A receptor [3H]-SCH-58261 binding assay. The conditions noted are these: for pKi: affinity to human adenosine A2A receptor, read-out: Ki HA2A; for selectivity (A1/A2a): calculated ratio of the affinity to the HA1 receptor to the HA2a receptor.

Experiment [2] deals with T2, HA1 adenosine receptor (Homo sapiens, UniProt P30542).
T2 sequence (P30542 1-326): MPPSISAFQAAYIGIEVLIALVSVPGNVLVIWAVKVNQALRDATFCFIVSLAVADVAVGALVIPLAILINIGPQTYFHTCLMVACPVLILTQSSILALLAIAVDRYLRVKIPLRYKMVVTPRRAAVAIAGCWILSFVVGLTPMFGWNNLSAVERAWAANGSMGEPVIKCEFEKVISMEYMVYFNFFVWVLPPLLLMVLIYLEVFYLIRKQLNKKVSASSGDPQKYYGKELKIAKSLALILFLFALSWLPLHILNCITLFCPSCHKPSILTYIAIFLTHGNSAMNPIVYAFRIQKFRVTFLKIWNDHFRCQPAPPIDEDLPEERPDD
Description: Human adenosine A1 receptor affinity (Ki hA1). The conditions noted are these: affinity to human adenosine A1 receptor. Type of experiment: binding.

pKi: −log10 of the molar value.

T1 sequence (P29274 whole entry): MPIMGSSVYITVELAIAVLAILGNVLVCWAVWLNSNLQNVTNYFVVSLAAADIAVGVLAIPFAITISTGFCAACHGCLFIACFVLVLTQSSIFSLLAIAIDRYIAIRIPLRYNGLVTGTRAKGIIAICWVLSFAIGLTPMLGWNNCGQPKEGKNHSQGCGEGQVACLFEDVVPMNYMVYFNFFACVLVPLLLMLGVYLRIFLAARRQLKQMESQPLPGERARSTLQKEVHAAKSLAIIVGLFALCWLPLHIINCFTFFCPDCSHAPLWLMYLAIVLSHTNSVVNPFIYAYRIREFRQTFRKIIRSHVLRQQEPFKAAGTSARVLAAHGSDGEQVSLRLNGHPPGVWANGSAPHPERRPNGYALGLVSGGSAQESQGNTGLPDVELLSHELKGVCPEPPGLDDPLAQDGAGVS

As for `CC(C)N(C(=O)c1cc(N)n2nc(-c3nccs3)nc2c1)C(C)C` [Example 122, 5-Amino-2-thiazol-2-yl-[1,2,4]triazolo[1,5-a]pyridine-7-carboxylic acid diisopropylamide], in experiment [1], the pKi is 6.50 and the “selectivity (A1/A2a)” value is reported as 10.5. Besides, the pKi in experiment [2] was 5.48.

Take `Nc1cc(C(=O)NC2CCCCC2)cc2nc(-c3nccs3)nn12` [Example 123, 5-Amino-2-thiazol-2-yl-[1,2,4]triazolo[1,5-a]pyridine-7-carboxylic acid cyclohexylamide]: the pKi is 7.36 in experiment [1] and 6.16 in experiment [2]. The “selectivity (A1/A2a)” value in experiment [1] is listed as 16.0.

As to `CN(C(=O)c1cc(N)n2nc(-c3nccs3)nc2c1)C1CCCCC1` [Example 124, 5-Amino-2-thiazol-2-yl-[1,2,4]triazolo[1,5-a]pyridine-7-carboxylic acid cyclohexyl-methyl-amide], in experiment [1], the pKi is 7.00 and the “selectivity (A1/A2a)” value is reported as 15.2. For the same molecule, the pKi in experiment [2] was 5.82.

On to `Nc1cc(C(=O)NC2CCc3ccccc32)cc2nc(-c3nccs3)nn12` (stereo not drawn) [Example 125, 5-Amino-2-thiazol-2-yl-[1,2,4]triazolo[1,5-a]pyridine-7-carboxylic acid indan-1-ylamide], for which, in experiment [1], the pKi was 7.61 and the “selectivity (A1/A2a)” value is 10.5. The same molecule gave a pKi in experiment [2] of 6.59.

`CC(NC(=O)c1cc(N)n2nc(-c3nccs3)nc2c1)c1ccccc1` (stereo not drawn) [Example 126, 5-Amino-2-thiazol-2-yl-[1,2,4]triazolo[1,5-a]pyridine-7-carboxylic acid (1-phenyl-ethyl)-amide]: in experiment [1], the pKi is 7.26 and the “selectivity (A1/A2a)” value is recorded as 4.3. For the same molecule, the pKi in experiment [2] was 6.63.

As to `CCN(CC)C(=O)c1cc(N)n2nc(-c3cccs3)nc2c1` [Example 127, 5-Amino-2-thiophen-2-yl-[1,2,4]triazolo[1,5-a]pyridine-7-carboxylic acid diethylamide], the pKi in experiment [1] is 6.98; in experiment [2], 5.71. Also, the “selectivity (A1/A2a)” value in experiment [1] is given as 18.9.

For the molecule `Nc1cc(C(=O)N2CCCCC2)cc2nc(-c3cccs3)nn12` [Example 129, (5-Amino-2-thiophen-2-yl-[1,2,4]triazolo[1,5-a]pyridin-7-yl)-piperidin-1-yl-methanone], in experiment [1], the pKi is 7.00 and the “selectivity (A1/A2a)” value is 14.5. The same molecule had a pKi in experiment [2] of 5.84.

Take `COc1ccccc1CNC(=O)c1cc(N)n2nc(-c3nccs3)nc2c1` [Example 130, 5-Amino-2-thiazol-2-yl-[1,2,4]triazolo[1,5-a]pyridine-7-carboxylic acid 2-methoxy-benzylamide]: in experiment [1], the pKi was 7.82 and the “selectivity (A1/A2a)” value is 8.4. Besides, the pKi in experiment [2] was 6.89.

`CCCCNC(=O)c1cc(N)n2nc(-c3ccc(Br)o3)nc2c1` [Example 131, 5-Amino-2-(5-bromo-furan-2-yl)-[1,2,4]triazolo[1,5-a]pyridine-7-carboxylic acid butylamide]: in experiment [1], the pKi is 7.71 and the “selectivity (A1/A2a)” value is recorded as 17.8. This molecule also showed a pKi in experiment [2] of 6.46.

With `Nc1cc(C(=O)N2CCOCC2)cc2nc(-c3ccc(Br)o3)nn12` [Example 132, [5-Amino-2-(5-bromo-furan-2-yl)-[1,2,4]triazolo[1,5-a]pyridin-7-yl]-morpholin-4-yl-methanone], in experiment [1], the pKi is 7.47 and the “selectivity (A1/A2a)” value was 22.7. The molecule also showed a pKi in experiment [2] of 6.12.

`COc1cc(CNC(=O)c2cc(N)n3nc(-c4ccc(Br)o4)nc3c2)cc(OC)c1OC` [Example 133, 5-Amino-2-(5-bromo-furan-2-yl)-[1,2,4]triazolo[1,5-a]pyridine-7-carboxylic acid 3,4,5-trimethoxy-benzylamide]: in experiment [1], the pKi is 6.84 and the “selectivity (A1/A2a)” value was 13.3. For the same molecule, the pKi in experiment [2] was 5.71.

On to `Cn1cccc1-c1nc2cc(C(=O)N3CCCC3)cc(N)n2n1` [Example 134, [5-Amino-2-(1-methyl-1H-pyrrol-2-yl)-[1,2,4]triazolo[1,5-a]pyridin-7-yl]-pyrrolidin-1-yl-methanone], for which the results for the pKi in experiment [1] and in experiment [2] were 6.54 and 5.57, respectively. The “selectivity (A1/A2a)” value in experiment [1] is on record as 9.3.

On to `CC(C)N(Cc1ccccc1)C(=O)c1cc(N)n2nc(-c3cccn3C)nc2c1` [Example 135, 5-Amino-2-(1-methyl-1H-pyrrol-2-yl)-[1,2,4]triazolo[1,5-a]pyridine-7-carboxylic acid benzyl-isopropyl-amide], for which the figures for the pKi in experiment [1] and in experiment [2] were 6.78 and 5.74, respectively. The “selectivity (A1/A2a)” value in experiment [1] is listed as 10.9.

Take `CC(C)N(Cc1ccccc1)C(=O)c1cc(N)n2nc(-c3ccco3)nc2c1` [Example 136, 5-Amino-2-furan-2-yl-[1,2,4]triazolo[1,5-a]pyridine-7-carboxylic acid benzyl-isopropyl-amide]: in experiment [1], the pKi was 7.92 and the “selectivity (A1/A2a)” value is given as 18.5. In addition, the pKi in experiment [2] is 6.65.

As for `CCCCNC(=O)c1cc(N)n2nc(-c3ccc(C)o3)nc2c1` [Example 137, 5-Amino-2-(5-methyl-furan-2-yl)-[1,2,4]triazolo[1,5-a]pyridine-7-carboxylic acid butylamide], in experiment [1], the pKi was 7.96 and the “selectivity (A1/A2a)” value is 19.8. In experiment [2], this molecule gave a pKi of 6.66.

Take `Cc1ccc(-c2nc3cc(C(=O)NC4CCCCC4)cc(N)n3n2)o1` [Example 138, 5-Amino-2-(5-methyl-furan-2-yl)-[1,2,4]triazolo[1,5-a]pyridine-7-carboxylic acid cyclohexylamide]: in experiment [1], the pKi was 6.91 and the “selectivity (A1/A2a)” value was 10.3. Besides, the pKi in experiment [2] was 5.90.

As for `Cc1ccc(-c2nc3cc(C(=O)N4CCOCC4)cc(N)n3n2)o1` [Example 139, [5-Amino-2-(5-methyl-furan-2-yl)-[1,2,4]triazolo[1,5-a]pyridin-7-yl]-morpholin-4-yl-methanone], in experiment [1], the pKi was 7.13 and the “selectivity (A1/A2a)” value is 23.5. This molecule had a pKi in experiment [2] of 5.76.

For `Cc1ccc(-c2nc3cc(C(=O)N(C)Cc4ccccc4)cc(N)n3n2)o1` [Example 140, 5-Amino-2-(5-methyl-furan-2-yl)-[1,2,4]triazolo[1,5-a]pyridine-7-carboxylic acid benzyl-methyl-amide], in experiment [1], the pKi is 8.14 and the “selectivity (A1/A2a)” value is given as 14.7. This molecule had a pKi in experiment [2] of 6.97.

With `Cc1ccc(-c2nc3cc(C(=O)N(Cc4ccccc4)C(C)C)cc(N)n3n2)o1` [Example 141, 5-Amino-2-(5-methyl-furan-2-yl)-[1,2,4]triazolo[1,5-a]pyridine-7-carboxylic acid benzyl-isopropyl-amide], the pKi in experiment [1] is 8.23; in experiment [2], 6.91. In experiment [1], the “selectivity (A1/A2a)” value is 20.8.

For `COc1ccc(CNC(=O)c2cc(N)n3nc(-c4ccc(C)o4)nc3c2)cc1OC` [Example 142, 5-Amino-2-(5-methyl-furan-2-yl)-[1,2,4]triazolo[1,5-a]pyridine-7-carboxylic acid 3,4-dimethoxy-benzylamide], in experiment [1], the pKi is 6.55 and the “selectivity (A1/A2a)” value was 14.6. The same molecule showed a pKi in experiment [2] of 5.39.

With `CCN(C(=O)c1cc(N)n2nc(-c3sccc3C)nc2c1)C(C)C` [Example 143, 5-Amino-2-(3-methyl-thiophen-2-yl)-[1,2,4]triazolo[1,5-a]pyridine-7-carboxylic acid ethyl-isopropyl-amide], in experiment [1], the pKi was 6.92 and the “selectivity (A1/A2a)” value is reported as 9.0. The negative logarithm of the Ki (pKi) in experiment [2] is 5.96.

Regarding `Cc1ccsc1-c1nc2cc(C(=O)N(Cc3ccccc3)C(C)C)cc(N)n2n1` [Example 144, 5-Amino-2-(3-methyl-thiophen-2-yl)-[1,2,4]triazolo[1,5-a]pyridine-7-carboxylic acid benzyl-isopropyl-amide], the pKi in experiment [1] was 7.20; in experiment [2], 6.09. Also, the “selectivity (A1/A2a)” value in experiment [1] was 12.9.

For the molecule `CCCCNC(=O)c1cc(N)n2nc(-c3ccccc3)nc2c1` [Example 145, 5-Amino-2-phenyl-[1,2,4]triazolo[1,5-a]pyridine-7-carboxylic acid butylamide], in experiment [1], the pKi was 7.59 and the “selectivity (A1/A2a)” value is 4.1. In addition, the pKi in experiment [2] is 6.97.

Take `CCN(CC)C(=O)c1cc(N)n2nc(-c3ccccc3)nc2c1` [Example 146, 5-Amino-2-phenyl-[1,2,4]triazolo[1,5-a]pyridine-7-carboxylic acid diethylamide]: the values for the pKi in experiment [1] and in experiment [2] were 6.88 and 5.71, respectively. In addition, the “selectivity (A1/A2a)” value in experiment [1] was 15.0.

`Nc1cc(C(=O)NC2CCCCC2)cc2nc(-c3ccccc3)nn12` [Example 147, 5-Amino-2-phenyl-[1,2,4]triazolo[1,5-a]pyridine-7-carboxylic acid cyclohexylamide]: the pKi is 6.85 in experiment [1] and 6.34 in experiment [2]. Besides, the “selectivity (A1/A2a)” value in experiment [1] was 3.2.

Take `CN(C(=O)c1cc(N)n2nc(-c3ccccc3)nc2c1)C1CCCCC1` [Example 148, 5-Amino-2-phenyl-[1,2,4]triazolo[1,5-a]pyridine-7-carboxylic acid cyclohexyl-methyl-amide]: the results for the pKi in experiment [1] and in experiment [2] were 6.83 and 5.92, respectively. Besides, the “selectivity (A1/A2a)” value in experiment [1] was 8.1.

On to `Nc1cc(C(=O)NC2CCc3ccccc32)cc2nc(-c3ccccc3)nn12` (stereo not drawn) [Example 149, 5-Amino-2-phenyl-[1,2,4]triazolo[1,5-a]pyridine-7-carboxylic acid indan-1-ylamide], for which, in experiment [1], the pKi was 7.24 and the “selectivity (A1/A2a)” value was 1.7. The molecule also showed a negative-log Ki (pKi) in experiment [2] of 7.01.
